The values below come from PMC3140574 (Journal of immunology (Baltimore, Md. : 1950), 2011).

In assay [1] the target is HLA-A*0201 (Homo sapiens, UniProt P04439, D140Y/D185E/D98H/E176V/E277Q/G131W/G231S/I119V/I121R/I166T/I218V/L300P/L318F/N151K/N90K/P208A/P217A/Q86G/Q94H/R138H/R169H/T345S). The assay can be described thus: HLA-A*0201-peptide binding.
Assay [2] has as its system splenocytes of ML1419c p113-121 immunized HLA-A2tg mice. Type of assay: cell-based.

Where a SMILES comes first, the peptide text is derived from it.

One may read the IC50 as the concentration at which inhibition is half-maximal. Higher therefore signals weaker potency. Take `CC(C)C[C@H](NC(=O)[C@@H](NC(=O)[C@@H](NC(=O)CNC(=O)[C@H](CC(=O)O)NC(=O)[C@H](CC(C)C)NC(=O)[C@@H](N)CCCNC(=N)N)[C@@H](C)O)[C@@H](C)O)C(=O)N[C@@H](CCC(=O)O)C(=O)N[C@H](C(=O)O)C(C)C` [ML1419c p113-121, RLDGTTLEV] (H-RLDGTTLEV-OH): the IC50 in assay [1] came to 0.035 µM.
In assay [2], concanavalin A [conA] gave an IFN-γ of 5112 pg/mL, an IL-6 of 299 pg/mL, an IP-10 of 251 pg/mL and an MIG of 533 pg/mL. Besides, in assay [2], the MIP-β was found to be 787 pg/mL, the TNF-α worked out at 33 pg/mL and the VEGF is 83 pg/mL.
